Results reported in article PMC3192011 (Journal of medicinal chemistry, 2009).
Where “and” joins values, the source holds several entries; their conditions need not be identical. Equal values may be shown once. Entries after “also recorded” stand apart in the source; their conditions may differ. Read-outs that look alike come from different tables or passages of the source.

Tests used:
[1] = molecular target: T1, mGlu5 (Rattus norvegicus, UniProt P31424); experiment: mGlu5 cell-based in vitro functional assay; settings: for IC50/EC50 (nM): IC50: NAM; for IC50/EC50 (nM): IC50 / IC50/EC50 (nM): EC50: average of at least three independent determinations; for IC50/EC50 (nM): EC50: PAM, potentiation in the presence of glutamate EC20
T1 sequence (P31424 21-1203): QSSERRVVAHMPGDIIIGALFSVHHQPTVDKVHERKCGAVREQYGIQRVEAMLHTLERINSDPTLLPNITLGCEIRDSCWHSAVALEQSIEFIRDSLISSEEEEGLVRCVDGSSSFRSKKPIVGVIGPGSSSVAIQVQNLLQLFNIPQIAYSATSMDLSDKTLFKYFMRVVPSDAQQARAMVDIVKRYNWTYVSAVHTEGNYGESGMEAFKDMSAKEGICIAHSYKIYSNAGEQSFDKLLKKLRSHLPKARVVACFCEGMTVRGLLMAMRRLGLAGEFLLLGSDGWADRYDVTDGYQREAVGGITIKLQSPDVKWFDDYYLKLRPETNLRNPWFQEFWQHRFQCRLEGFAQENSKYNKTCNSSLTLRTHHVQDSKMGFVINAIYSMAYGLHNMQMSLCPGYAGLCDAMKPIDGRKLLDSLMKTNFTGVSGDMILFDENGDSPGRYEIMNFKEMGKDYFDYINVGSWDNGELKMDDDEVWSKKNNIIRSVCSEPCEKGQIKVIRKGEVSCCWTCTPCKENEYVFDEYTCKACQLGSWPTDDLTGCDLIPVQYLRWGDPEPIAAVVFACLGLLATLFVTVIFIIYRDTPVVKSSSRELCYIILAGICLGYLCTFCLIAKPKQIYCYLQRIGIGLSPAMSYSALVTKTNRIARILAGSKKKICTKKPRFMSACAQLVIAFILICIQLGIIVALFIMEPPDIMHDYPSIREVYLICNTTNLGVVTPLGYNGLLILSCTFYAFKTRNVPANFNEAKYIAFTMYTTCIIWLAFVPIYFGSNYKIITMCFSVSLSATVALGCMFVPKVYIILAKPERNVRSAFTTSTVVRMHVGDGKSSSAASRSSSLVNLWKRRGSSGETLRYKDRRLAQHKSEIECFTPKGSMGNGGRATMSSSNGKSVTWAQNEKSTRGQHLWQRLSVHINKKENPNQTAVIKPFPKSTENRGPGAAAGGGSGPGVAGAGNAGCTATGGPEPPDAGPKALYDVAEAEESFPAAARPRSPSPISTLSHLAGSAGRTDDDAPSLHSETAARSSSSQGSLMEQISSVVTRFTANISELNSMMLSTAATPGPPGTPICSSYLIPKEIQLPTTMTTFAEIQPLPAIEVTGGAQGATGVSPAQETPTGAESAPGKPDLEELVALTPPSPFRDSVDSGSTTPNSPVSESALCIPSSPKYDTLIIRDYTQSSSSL

[2] = tested on: amphetamine-induced hyperlocomotion in rats; experiment: Reversal of amphetamine-induced hyperlocomotion; assay type: in vivo
[3] = molecular target: mGlu3 (Homo sapiens, UniProt Q14832); experiment: mGlu selectivity, mGlu3; assay type: cell-based
Chain of mGlu3 (Q14832 23-879): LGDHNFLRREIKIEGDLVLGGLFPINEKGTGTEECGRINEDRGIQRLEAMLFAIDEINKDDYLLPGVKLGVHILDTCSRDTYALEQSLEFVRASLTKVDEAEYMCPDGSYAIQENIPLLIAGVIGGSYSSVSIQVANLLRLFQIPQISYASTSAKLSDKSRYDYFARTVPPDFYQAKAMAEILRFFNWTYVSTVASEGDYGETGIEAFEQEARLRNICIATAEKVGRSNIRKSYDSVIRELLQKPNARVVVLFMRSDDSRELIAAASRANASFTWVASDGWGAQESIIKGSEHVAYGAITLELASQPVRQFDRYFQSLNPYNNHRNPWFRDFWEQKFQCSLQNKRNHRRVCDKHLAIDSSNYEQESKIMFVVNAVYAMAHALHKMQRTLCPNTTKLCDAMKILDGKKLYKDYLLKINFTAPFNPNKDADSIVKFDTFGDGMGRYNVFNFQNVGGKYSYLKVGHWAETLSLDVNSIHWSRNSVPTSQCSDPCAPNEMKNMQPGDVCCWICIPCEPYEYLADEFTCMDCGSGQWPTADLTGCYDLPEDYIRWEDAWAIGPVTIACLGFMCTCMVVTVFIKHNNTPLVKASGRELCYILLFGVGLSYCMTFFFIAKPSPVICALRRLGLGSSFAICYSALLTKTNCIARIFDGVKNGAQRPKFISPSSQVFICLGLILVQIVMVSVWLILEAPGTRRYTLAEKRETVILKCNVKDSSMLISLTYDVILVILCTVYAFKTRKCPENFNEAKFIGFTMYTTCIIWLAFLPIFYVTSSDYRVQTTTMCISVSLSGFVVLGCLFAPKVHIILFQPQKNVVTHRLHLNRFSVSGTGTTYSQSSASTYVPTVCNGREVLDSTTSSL

[4] = molecular target: mGlu7 (Homo sapiens, UniProt Q14831); experiment: mGlu selectivity, mGlu7; assay type: cell-based
[5] = molecular target: mGlu4 (Homo sapiens, UniProt Q14833); experiment: mGlu selectivity, mGlu4; assay type: cell-based
Chain of mGlu4 (Q14833 33-912): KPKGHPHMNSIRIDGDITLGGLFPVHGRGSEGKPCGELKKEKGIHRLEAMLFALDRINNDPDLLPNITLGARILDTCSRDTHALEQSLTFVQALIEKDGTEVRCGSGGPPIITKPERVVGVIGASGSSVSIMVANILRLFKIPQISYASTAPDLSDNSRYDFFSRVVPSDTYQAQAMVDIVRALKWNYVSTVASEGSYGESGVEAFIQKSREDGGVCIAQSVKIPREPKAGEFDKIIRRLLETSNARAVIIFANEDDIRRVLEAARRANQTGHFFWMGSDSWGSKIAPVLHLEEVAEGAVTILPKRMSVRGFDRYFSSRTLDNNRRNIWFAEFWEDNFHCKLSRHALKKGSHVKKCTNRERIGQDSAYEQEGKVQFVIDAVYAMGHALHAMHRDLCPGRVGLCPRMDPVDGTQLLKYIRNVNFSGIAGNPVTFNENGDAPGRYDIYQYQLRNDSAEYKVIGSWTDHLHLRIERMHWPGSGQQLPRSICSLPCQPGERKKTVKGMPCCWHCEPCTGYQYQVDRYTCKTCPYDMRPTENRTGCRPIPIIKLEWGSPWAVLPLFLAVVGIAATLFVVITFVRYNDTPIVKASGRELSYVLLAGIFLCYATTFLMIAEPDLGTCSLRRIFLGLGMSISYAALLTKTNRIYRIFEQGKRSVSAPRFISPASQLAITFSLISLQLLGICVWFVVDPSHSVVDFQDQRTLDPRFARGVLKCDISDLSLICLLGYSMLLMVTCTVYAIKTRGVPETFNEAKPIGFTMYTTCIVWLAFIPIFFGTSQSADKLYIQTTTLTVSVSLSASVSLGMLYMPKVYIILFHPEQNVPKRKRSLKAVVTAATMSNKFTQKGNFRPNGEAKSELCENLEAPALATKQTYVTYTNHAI

[6] = molecular target: mGlu2 (Homo sapiens, UniProt Q14416); experiment: mGlu selectivity, mGlu2; assay type: cell-based
Chain of mGlu2 (Q14416 19-872): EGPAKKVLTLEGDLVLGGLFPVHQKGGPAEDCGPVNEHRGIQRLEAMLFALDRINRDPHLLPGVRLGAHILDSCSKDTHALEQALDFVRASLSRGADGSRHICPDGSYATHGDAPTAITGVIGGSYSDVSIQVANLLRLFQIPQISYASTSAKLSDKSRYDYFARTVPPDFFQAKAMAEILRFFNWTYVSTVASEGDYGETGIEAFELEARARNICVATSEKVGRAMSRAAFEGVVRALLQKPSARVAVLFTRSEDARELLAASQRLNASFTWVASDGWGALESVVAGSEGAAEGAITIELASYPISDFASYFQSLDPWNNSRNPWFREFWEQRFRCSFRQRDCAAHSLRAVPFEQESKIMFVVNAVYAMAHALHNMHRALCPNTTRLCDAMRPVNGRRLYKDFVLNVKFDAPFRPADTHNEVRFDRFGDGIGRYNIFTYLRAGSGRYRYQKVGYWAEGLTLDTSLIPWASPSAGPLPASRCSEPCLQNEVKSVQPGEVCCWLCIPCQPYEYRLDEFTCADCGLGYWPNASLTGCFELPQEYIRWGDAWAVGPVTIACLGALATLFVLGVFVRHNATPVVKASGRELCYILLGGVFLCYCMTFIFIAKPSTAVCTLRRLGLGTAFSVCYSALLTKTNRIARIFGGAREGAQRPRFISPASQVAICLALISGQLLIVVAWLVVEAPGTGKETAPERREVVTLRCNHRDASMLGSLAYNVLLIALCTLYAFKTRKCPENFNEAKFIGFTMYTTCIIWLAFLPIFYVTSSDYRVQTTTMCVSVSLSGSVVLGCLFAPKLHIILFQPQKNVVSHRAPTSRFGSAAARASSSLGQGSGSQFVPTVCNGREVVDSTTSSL

[7] = molecular target: mGlu8 (Homo sapiens, UniProt O00222); experiment: mGlu selectivity, mGlu8; assay type: cell-based
Chain of mGlu8 (O00222 34-908): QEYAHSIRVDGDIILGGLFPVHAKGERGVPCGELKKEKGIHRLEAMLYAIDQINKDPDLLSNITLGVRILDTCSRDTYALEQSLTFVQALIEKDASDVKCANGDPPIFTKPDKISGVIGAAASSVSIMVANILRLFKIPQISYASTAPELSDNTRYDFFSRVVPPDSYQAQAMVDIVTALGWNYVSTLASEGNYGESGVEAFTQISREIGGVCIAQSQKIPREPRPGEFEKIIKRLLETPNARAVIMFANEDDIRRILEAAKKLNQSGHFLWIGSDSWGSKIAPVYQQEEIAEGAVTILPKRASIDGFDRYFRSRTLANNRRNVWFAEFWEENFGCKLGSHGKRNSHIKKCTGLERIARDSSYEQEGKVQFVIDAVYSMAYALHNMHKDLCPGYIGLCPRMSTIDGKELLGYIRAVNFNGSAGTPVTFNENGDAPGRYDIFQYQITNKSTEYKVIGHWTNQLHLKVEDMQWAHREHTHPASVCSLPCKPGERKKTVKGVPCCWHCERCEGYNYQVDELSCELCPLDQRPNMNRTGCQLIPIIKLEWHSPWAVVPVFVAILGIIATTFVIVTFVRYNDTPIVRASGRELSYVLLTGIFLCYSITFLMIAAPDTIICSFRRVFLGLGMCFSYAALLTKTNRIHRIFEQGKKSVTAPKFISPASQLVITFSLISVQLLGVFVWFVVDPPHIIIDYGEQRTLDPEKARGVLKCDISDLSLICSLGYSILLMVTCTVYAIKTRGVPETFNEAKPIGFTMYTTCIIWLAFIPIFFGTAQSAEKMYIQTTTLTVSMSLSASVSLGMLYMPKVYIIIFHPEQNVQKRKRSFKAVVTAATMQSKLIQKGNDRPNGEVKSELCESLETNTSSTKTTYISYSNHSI

[8] = molecular target: mGlu1 (Homo sapiens, UniProt Q13255); experiment: mGlu selectivity, mGlu1; assay type: cell-based
[9] = tested on: punished responding; experiment: Modified Geller-Seifter conflict model; assay type: in vivo, rodent; settings: 1, 3, 10, 30 mg/kg
[10] = tested on: amphetamine-induced hyperlocomotion in rats; settings: cited from earlier work
[11] = molecular target: T1, mGlu5; settings: cited from earlier work

Q: With CCOc1ncc(C#Cc2cccc(C)c2)cn1 [16a] as the compound, how does the “IC50/EC50 (nM): IC50” value [1] read?
A: 21 nM

Q: What does the source list for CNc1ncc(C#Cc2ccccc2)cn1 [16b]?
A: reversal of amphetamine-induced hyperlocomotion ([2]; i.p. 3, 10 or 30 mg/kg thirty minutes prior to s.c. 1 mg/kg amphetamine, vehicle 10% Tween 80): significant reversal noted at the 30 mg/kg dose; also recorded: dose-dependent manner; effect of compound/vehicle alone on locomotion (sedation) ([2]; without amphetamine): no effect; mGlu5 activity in words [1]: pure mGlu5 PAM; IC50/EC50 (nM): EC50 [1]: 14.3 nM; activity in the absence of glutamate (agonism) ([1]; no glutamate): does not activate mGlu5

Q: For CNc1ncc(C#Cc2cccc(C)c2)cn1 [16c], which “IC50/EC50 (nM): EC50” value [1] is on record?
A: 21.1 nM and 21 nM

Q: Which “IC50/EC50 (nM): EC50” value [1] does the source give for CSc1ncc(C#Cc2ccccc2)cn1 [16d] here?
A: 120 nM

Q: For CC(C)(C)c1ncc(C#Cc2ccccc2)cn1 [16e], which “IC50/EC50 (nM): EC50” value [1] is on record?
A: 247 nM

Q: Which “mGlu5 activity in words” value [1] does the source give for CNc1ncc(C#Cc2ccc(C)cc2)cn1 [16f] here?
A: weak mGlu5 PAM

Q: For Cc1cccc(C#Cc2ncccn2)c1 [17b], which “selectivity vs. mGlu3” value [3] is on record?
A: > 10 µM

Q: And the “selectivity vs. mGlu7” value [4]?
A: > 10 µM

Q: And the “selectivity vs. mGlu4” value [5]?
A: > 10 µM

Q: What about the “IC50/EC50 (nM): IC50” value [1] of the same compound?
A: 10.8 ± 2.7 nM

Q: And the “selectivity vs. mGlu2” value [6]?
A: > 10 µM

Q: And the “selectivity vs. mGlu8” value [7]?
A: > 10 µM

Q: What about the “selectivity vs. mGlu1” value [8] of the same compound?
A: > 10 µM

Q: And the unpunished responding [9]?
A: no significant effect on unpunished responding; also recorded: did not change significantly at any of the doses tested

Q: And the “punished responding vs vehicle” value ([9]; p < 0.05 Newman-Keul)?
A: both the 10 and 30 mg/kg doses in the punished component of the schedule differed significantly from vehicle; also recorded: significantly greater number of responses than animals tested on vehicle

Q: With Cc1ccc(C#Cc2ncccn2)cc1 [17c] as the compound, how does the “mGlu5 activity in words” value [1] read?
A: inactive

Q: With N#Cc1cccc(C(=O)Nc2cc(-c3ccccc3)nn2-c2ccccc2)c1 [compound 6, reference compound] as the compound, how does the “efficacy in amphetamine-induced hyperlocomotion model” value [10] read?
A: robust efficacy

Q: What about the “mode of mGlu5 pharmacology in words” value [11] of the same compound?
A: ago-potentiators

Q: With O=C(c1ccc(F)cc1)N1CCC[C@H](c2nc(-c3ccc(F)cc3)no2)C1 [compound 7, reference compound] as the compound, how does the “efficacy in amphetamine-induced hyperlocomotion model” value [10] read?
A: robust efficacy

Q: And the “mode of mGlu5 pharmacology in words” value [11]?
A: ago-potentiators

Q: Which “IC50/EC50 (nM): EC50” value ([11]; PAM, table value of earlier compound) does the source give for Cc1ccc(C#Cc2cncnc2)cc1 [compound 10] here?
A: 3,300±290 nM

Q: What about the “Fold Shift” value ([11]; mGlu5 PAM) of the same compound?
A: 4.2 fold

Q: And the “efficacy, % of glutamate max” value ([11]; mGlu5 PAM)?
A: 99%
